Here are results for 22 molecules from patent US9149475B2, “Protein kinase C inhibitors and uses thereof” (Rigel Pharmaceuticals, Inc., priority 2009, dated 2015).

One may read the IC50 as the concentration that gives 50% inhibition.

Each structure is given as a SMILES string. Some results are limits rather than exact numbers.

One experiment relates to Human primary T cells. The experiment is described as follows: IL-2 ELISA, human primary T cell, anti-CD3+CD28+ (whole cell assay). The class given is cell-based. Conditions: Homo sapiens, T-cell, 24 h, human primary T cells stimulated with anti-CD3 + anti-CD28, 24 hours. The procedure:
(§1) Human primary T cells were prepared as follows. Whole blood was obtained from a healthy volunteer, mixed 1:1 with PBS, layered on to Ficoll Hypaque (Amersham Pharmacia Biotech, Piscataway, N.J., Catalog #17-1440-03) in 2:1 blood/PBS:ficoll ratio and centrifuged for 30 minutes at 4° C. at 1750 rpm. The cells at the serum:ficoll interface were recovered and washed twice with 5 volumes of PBS. These freshly isolated human peripheral blood mononuclear cells were cultured in Yssel's medium containing 40 U/mL IL2 in a flask pre-coated with 1 μg/mL αCD3 and 5 μg/mL αCD28 (Anti-Human CD3, BD Pharmingen Catalog #555336, Anti-Human CD28, Beckman Coulter Catalog #IM1376). The cells were stimulated for 3-4 days, then transferred to a fresh flask and maintained in RPMI (RPMI-1640 with L-Glutamine; Mediatech, Inc., Herndon Va., cat. #10-040-CM) with 10% FBS and 40 U/mL IL-2. The primary T-cells were then washed twice with PBS to remove the IL-2.
Human primary T cells (100,000 cells per well) were pre-incubated with or without test compound in Yssel's medium for 1 hr at 37° C. Cells were then stimulated by transferring them to round-bottom 96-well plates pre-coated with 1 μg/ml μCD3 and 5 μg/ml μCD28. For counter assay, cells were instead stimulated by adding 8× stock solutions of PMA and ionomycin in Yssels (for final concentrations of 0.5 ng/ml PMA and 0.1 μM ionomycin, both from Calbiochem). Cells were incubated at 37° C. for 24 hours before 100 μL supernatants were harvested for quantification of IL-2 by ELISA using Human IL-2 Duoset ELISA Kit from R and D Systems, Cat. #DY202E.
as §1, with “Human primary T cell isolation and culture: Human primary” for “Human primary”, “for 30 min at 4°” for “for 30 minutes at 4°”, “at the serum: ficoll interface were” for “at the serum:ficoll interface were”
Primary T cell stimulation and IL2 ELISA: Human primary T cells (100,000 cells per well) were pre-incubated with or without test compound in Yssel's medium for 1 hr at 37° C. Cells were then stimulated by transferring them to round-bottom 96-well plates pre-coated with 1 μg/ml αCD3 and 5 μg/ml αCD28. For counter assay, cells were instead stimulated by adding 8× stock solutions of PMA and ionomycin in Yssels (for final concentrations of 0.5 ng/ml PMA and 0.1 μM ionomycin, both from Calbiochem). Cells were incubated at 37° C. for 24 hours before 100 μL supernatants were harvested for quantification of IL-2 by ELISA using Human IL-2 Duoset ELISA Kit from R and D Systems, Cat. #DY202E.
As for `CN1C(C)(C)CC(Nc2nc(Nc3ccc(OC4CCN(CCO)CC4)c(OC(F)F)c3)ncc2F)CC1(C)C` [III-37, 2-(4-(2-(Difluoromethoxy)-4-(5-fluoro-4-(1,2,2,6,6-pentamethylpiperidin-4-ylamino)pyrimidin-2-ylamino)phenoxy)piperidin-1-yl)ethanol], the IC50 was under 250 nM.

Take `CN1C(C)(C)CC(Nc2nc(Nc3cc(F)cc(OCCn4ccnn4)c3)ncc2F)CC1(C)C` [Compound I-6, N2-(3-(2-(1H-1,2,3-triazol-1-yl)ethoxy)-5-fluorophenyl)-5-fluoro-N4-(1,2,2,6,6-pentamethylpiperidin-4-yl)pyrimidine-2,4-diamine]: the IC50 is 500 to 1000 nM.

Consider `CN1C(C)(C)CC(Nc2nc(Nc3cc(Cl)cc(-c4nnnn4C)c3)ncc2F)CC1(C)C` [III-135, N2-(3-chloro-5-(1-methyl-1H-tetrazol-5-yl)phenyl)-5-fluoro-N4-(1,2,2,6,6-pentamethylpiperidin-4-yl)pyrimidine-2,4-diamine], for which the IC50 is under 250 nM.

As to `CC(C)N1CCC(Oc2ccc(Nc3ncc(F)c(NC4CC(C)(C)N(C)C(C)(C)C4)n3)cc2OC(F)F)C(F)(F)C1` (stereo not shown) [III-107, N2-(4-(3,3-difluoro-1-isopropylpiperidin-4-yloxy)-3-(difluoromethoxy)phenyl)-5-fluoro-N4-(1,2,2,6,6-pentamethylpiperidin-4-yl)pyrimidine-2,4-diamine], the IC50 lay within 500 to 1000 nM.

As for `CN1C(C)(C)CC(Nc2nc(Nc3ccc(Oc4cccnc4)c(OC(F)F)c3)ncc2C#N)CC1(C)C` [Compound I-52, 4-(1,2,2,6,6-pentamethylpiperidin-4-ylamino)-2-(3-(difluoromethoxy)-4-(pyridin-3-yloxy)phenylamino)pyrimidine-5-carbonitrile], the 50% inhibitory concentration (IC50) was under 250 nM.

As for `Cc1ccc(C)n1-c1cc(Nc2ncc(F)c(NC3CC(C)(C)N(C)C(C)(C)C3)n2)ccc1OC(F)F` [Compound I-4, N2-(4-(difluoromethoxy)-3-(2,5-dimethyl-1H-pyrrol-1-yl)phenyl)-5-fluoro-N4-(1,2,2,6,6-pentamethylpiperidin-4-yl)pyrimidine-2,4-diamine], the IC50 fell in the range of 250 to 500 nM.

Turning to `CC1(C)CC(Nc2nc(Nc3cccc(-n4cccn4)c3)ncc2F)CC(C)(C)N1` [Compound I-23, N2-(3-(1H-pyrazol-1-yl)phenyl)-5-fluoro-N4-(2,2,6,6-tetramethylpiperidin-4-yl)pyrimidine-2,4-diamine], the IC50 is over 1000 nM.

For the molecule `Cc1ccc(C)n1-c1cc(Nc2ncc(F)c(NC3CC(C)(C)N(C)C(C)(C)C3)n2)cnc1OC(C)C` [Compound I-115, 5-fluoro-N2-(6-isopropoxy-5-(2,5-dimethyl-1H-pyrrol-1-yl)pyridin-3-yl)-N4-(1,2,2,6,6-pentamethylpiperidin-4-yl)pyrimidine-2,4-diamine], the IC50 lay within 500 to 1000 nM.

On to `CC(C)N1CCC(Oc2ccc(Nc3ncc(F)c(NC4CC(C)(C)NC(C)(C)C4)n3)cc2C(F)(F)F)CC1` [III-102, 5-fluoro-N2-(4-(1-isopropylpiperidin-4-yloxy)-3-(trifluoromethyl)phenyl)-N4-(2,2,6,6-tetramethylpiperidin-4-yl)pyrimidine-2,4-diamine], for which the IC50 is 250 to 500 nM.

On to `Cc1nnnn1-c1cc(Nc2ncc(F)c(NC3CC(C)(C)NC(C)(C)C3)n2)cnc1OC(C)C` [Compound I-114, 5-fluoro-N2-(6-isopropoxy-5-(5-methyl-1H-tetrazol-1-yl)pyridin-3-yl)-N4-(2,2,6,6-tetramethylpiperidin-4-yl)pyrimidine-2,4-diamine], for which the IC50 was under 250 nM.

In the case of `CC(C)Oc1ncc(Nc2ncc(F)c(NC3CC(C)(C)NC(C)(C)C3)n2)cc1-c1nnnn1C` [Compound I-127, 5-fluoro-N2-(6-isopropoxy-5-(1-methyl-1H-tetrazol-5-yl)pyridin-3-yl)-N4-(2,2,6,6-tetramethylpiperidin-4-yl)pyrimidine-2,4-diamine], the IC50 is 250 to 500 nM.

`Cn1nnnc1-c1cc(Nc2ncc(F)c(NC3CC(C)(C)NC(C)(C)C3)n2)ccc1OC1CCOCC1` [III-124, 5-fluoro-N2-(3-(1-methyl-1H-tetrazol-5-yl)-4-(tetrahydro-2H-pyran-4-yloxy)phenyl)-N4-(2,2,6,6-tetramethylpiperidin-4-yl)pyrimidine-2,4-diamine]: the IC50 is over 1000 nM.

For `[2H]C([2H])([2H])N1C(C)(C)CC(Nc2nc(Nc3ccc(OC4CCN(C(C)C)CC4)c(Cl)c3)ncc2F)CC1(C)C` [III-111, N2-(3-(chloro)-4-(1-isopropylpiperidin-4-yloxy)phenyl)-5-fluoro-N4-(1-trideuteromethyl-2,2,6,6-tetramethylpiperidin-4-yl)pyrimidine-2,4-diamine], the IC50 is under 250 nM.

Turning to `CC1(C)CC(Nc2nc(Nc3ccc(OCCN4CCCC4=O)c(C(F)(F)F)c3)ncc2F)CC(C)(C)N1` [Compound I-57, 1-(2-(4-(4-(2,2,6,6-tetramethylpiperidin-4-ylamino)-5-fluoropyrimidin-2-ylamino)-2-(trifluoromethyl)phenoxy)ethyl)pyrrolidin-2-one], the IC50 was over 1000 nM.

`CN1C(C)(C)CC(Nc2nc(Nc3cc(C4CC4)cc(-n4cnnn4)c3)ncc2F)CC1(C)C` [III-117, N^2-(3-cyclopropyl-5-(1H-tetrazol-1-yl)phenyl)-5-fluoro-N^4(1,2,2,6,6-pentamethylpiperidin-4-yl)pyrimidine-2,4-diamine]: the IC50 was under 250 nM.

Consider `Cc1ccn(-c2cccc(Nc3ncc(F)c(NC4CC(C)(C)N(C)C(C)(C)C4)n3)c2)n1` [Compound I-1, 5-fluoro-N2-(3-(3-methyl-1H-pyrazol-1-yl)phenyl)-N4-(1,2,2,6,6-pentamethylpiperidin-4-yl)pyrimidine-2,4-diamine], for which the IC50 is over 1000 nM.

In the case of `CCNC(=O)N1CCCC(Oc2ccc(Nc3ncc(F)c(NC4CC(C)(C)N(C)C(C)(C)C4)n3)cc2OC(F)F)CC1` (stereo not shown) [III-87, 4-(2-(difluoromethoxy)-4-(5-fluoro-4-(1,2,2,6,6-pentamethylpiperidin-4-ylamino)pyrimidin-2-ylamino)phenoxy)-N-ethylazepane-1-carboxamide], the IC50 was in the range of 250 to 500 nM.

As for `CC(=O)N1CCCC(Oc2ccc(Nc3ncc(F)c(NC4CC(C)(C)N(C)C(C)(C)C4)n3)cc2OC(F)F)CC1` (stereo not shown) [III-43, 1-(4-(2-(difluoromethoxy)-4-(5-fluoro-4-(1,2,2,6,6-pentamethylpiperidin-4-ylamino)pyrimidin-2-ylamino)phenoxy)azepan-1-yl)ethanone], the IC50 was under 250 nM.

As for `CN1C(C)(C)CC(Nc2nc(Nc3ccc4c(c3)OCC(C(=O)N3CCCCC3)O4)ncc2F)CC1(C)C` (stereo not shown) [II-1, (6-(4-(1,2,2,6,6-pentamethylpiperidin-4-ylamino)-5-fluoropyrimidin-2-ylamino)-2,3-dihydrobenzo[b][1,4]dioxin-2-yl)(piperidin-1-yl)methanone], the IC50 was over 1000 nM.

For the molecule `Cn1nnnc1-c1cc(Nc2ncc(F)c(NC3CC(C)(C)NC(C)(C)C3)n2)cc(C(F)(F)F)c1` [III-140, 5-fluoro-N2-(3-(1-methyl-1H-tetrazol-5-yl)-5-(trifluoromethyl)phenyl)-N4-(2,2,6,6-tetramethylpiperidin-4-yl)pyrimidine-2,4-diamine], the IC50 is under 250 nM.

The same experiment, now with this note: human primary T cells stimulated with anti-CD3 + anti-CD28, 24 hours.
Regarding `CC1(C)CC(Nc2nc(Nc3ccc(F)c(-n4cnnn4)c3)ncc2C(N)=O)CC(C)(C)N1` [Compound I-67, 5-aminocarbonyl-N2-[4-fluoro-3-(1H-tetrazol-1-yl)]phenyl-N4-(2,2,6,6-tetramethylpiperidin-4-yl)-2,4-pyrimidinediamine], the IC50 was over 1000 nM.

As to `CN1C(C)(C)CC(Nc2nc(Nc3ccc(F)c(-n4cnnn4)c3)ncc2C#N)CC1(C)C` [Compound I-73, 5-cyano-N2-[4-fluoro-3-(1H-tetrazol-1-yl)]phenyl-N4-(1,2,2,6,6-pentamethylpiperidin-4-yl)-2,4-pyrimidinediamine], the IC50 was under 250 nM.
